Like-named read-outs stand apart in the source and are kept apart here.
Key:
[1] = Blood pressure after single oral dose in healthy male volunteers; format: in vivo, human; conditions: healthy subjects
Protocol: Ten healthy male volunteers were tested on two separate occasions one week apart. On both occasions their blood pressure was measured at baseline.

5HT1a receptors = target: T1, 5HT1a receptors (Homo sapiens, UniProt P08908); conditions: cited from earlier work
T1 construct: host or cells: human subjects, in vivo PET
T1 sequence (P08908 1-422): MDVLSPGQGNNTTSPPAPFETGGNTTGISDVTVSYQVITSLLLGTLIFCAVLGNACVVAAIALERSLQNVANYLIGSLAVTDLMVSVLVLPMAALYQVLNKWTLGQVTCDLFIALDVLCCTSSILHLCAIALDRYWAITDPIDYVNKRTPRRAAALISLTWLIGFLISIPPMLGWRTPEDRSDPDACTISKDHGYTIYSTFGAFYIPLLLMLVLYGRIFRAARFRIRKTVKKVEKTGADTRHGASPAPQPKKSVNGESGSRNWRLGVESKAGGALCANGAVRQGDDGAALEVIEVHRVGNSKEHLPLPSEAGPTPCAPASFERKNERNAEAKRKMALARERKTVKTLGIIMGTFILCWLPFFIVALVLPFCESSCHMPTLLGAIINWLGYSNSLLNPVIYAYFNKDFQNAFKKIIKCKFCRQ

[2] = Single blind pilot study of pindolol in PMS (COPE diary, CGI); format: in vivo, human
Description: A single blind pilot study to evaluate the safety, efficacy and tolerability of pindolol in PMS was initiated at one study centre. The trial objectives were to: […] […] Twenty subjects were recruited who met the criteria for inclusion in the study. After screening subjects underwent a one month assessment period with prospective diaries (COPE, Calendar of Premenstrual Events). By calculating the subjects COPE scores in the follicular and luteal phases, a diagnosis of late luteal phase dysphoric disorder could be made. All subjects then entered the single-blind placebo treatment period and the subjects' outcome at the end of this cycle acted as their baseline assessment. Subjects were then treated with pindolol for the next three cycles and assessed using the COPE. During this three month period, subjects may have a sequential increase in dose at monthly intervals from 15 to 25 mg/day to optimize response. Provision was made for dose decreases in case of tolerability concerns. Subjects were aware that they would receive three months of active and one month of placebo but were unaware of when the placebo was administered. […] Secondary efficacy measures included; mean change from the end of the placebo period in luteal phase total COPE score; mean change from end of the placebo period in luteal phase physical COPE symptoms; mean change from the end of the luteal phase behavioral symptoms; mean change from end of the placebo period in follicular phase total COPE score; CGI improvement score at each of the three menstrual cycles.

[3] = man, after administration of the racemate; cited from earlier work
[4] = meta-analysis of 14 double-blind trials; cited from earlier work
[5] = PMS subjects; cited from earlier work
[6] = luteal phase administration; cited from earlier work
[7] = Case treatment of a person with premenstrual dysphoric disorder, daily symptom diary; format: in vivo, human; conditions: month 2, 5 mg three times daily throughout luteal phase
Description: Patient was a person with a long history of premenstrual dysphoric disorder.
Throughout each cycle, a daily diary was used to document symptoms.

[8] = PMS subjects, three cycles of pindolol

## CC(C)NCC(O)COc1cccc2[nH]ccc12 (racemic) [pindolol]
[1]; 10 mg orally
  blood pressure: definite drop in blood pressure
[1]; 10 mg
  diastolic blood pressure: definite drops in diastolic blood pressure
5HT1a receptors; 2.5 mg
  occupancy of 5HT1a receptors: did not generate any significant occupancy
5HT1a receptors; 5.0 mg
  occupancy of 5HT1a receptors: 19%
[2]; 15 to 25 mg/day
  tolerability: very well tolerated
  withdrawals for unacceptable reductions in blood pressure: no withdrawals
[2]; [8]
  CGI improvement: improvement in CGI
  behavioral COPE scores: Particularly significant decreases
[2]; all patients treated with active drug, vs end of placebo period
  total COPE score: decrease in the reduction of total COPE score
[2]; patients on doses of 15 mg and above
  total COPE score: Significant decreases
[3]
  differences between (−) and (+) pindolol in AUC, Cmax and t1/2 hrs: minor differences

## CC(=O)[C@H]1CC[C@H]2[C@@H]3CCC4=CC(=O)CC[C@]4(C)[C@H]3CC[C@]12C [Progesterone]
[4]
  difference from placebo treatment in PMS: did not find a clinically significant difference

## CC(C)NCC(O)COc1ccc(CC(N)=O)cc1 (stereo not shown) [atenolol]
[5]
  several other scales: significant improvement was not found

## CNCCC(Oc1ccc(C(F)(F)F)cc1)c1ccccc1 (stereo not shown) [fluoxetine]
[6]
  efficacy in PMDD: some efficacy

## CN[C@H]1CC[C@@H](c2ccc(Cl)c(Cl)c2)c2ccccc21 [sertraline]
[6]
  efficacy in PMDD: some efficacy

## S-(−)-pindolol [(−) pindolol]
[7]
  mood and anxiety (daily diary): helped improve mood and reduce anxiety

Source: patent US20080262071A1 (priority 2004, published 2008)
